# Source: patent US20250049738A1, “METHOD OF TREATMENT AND SELECTION OF PATIENTS BENEFITING FROM AGOMELATINE BASED ON EEG MEASUREMENTS” (Alto Neuroscience, Inc., priority 2023, published 2025)
# Tests used:
# [1] = tested on: patients with major depressive disorder; experiment: Open-label trials of adjunctive agomelatine 25 mg at bedtime in MDD; baseline EEG models predicting change in MADRS; type: in vivo, human
# [2] = tested on: unselected depression patients; settings: monotherapy, meta-analytically calculated; cited from earlier work
# [3] = tested on: performance on a trail making task; settings: versus an SSRI; cited from earlier work
# circadian rhythm = settings: in vivo; cited from earlier work
smiles,measurement,setting,value
"COc1ccc2cccc(CCNC(C)=O)c2c1 [agomelatine, N-[2-(7-methoxynaphthalen-1-yl)ethyl]acetamide]","d (Cohen's d, prediction of agomelatine outcome)","[1]; REC, Modified Multiscale Entropy, lower alpha, Week 4",0.19
same,"d (Cohen's d, prediction of agomelatine outcome)","[1]; REC, Modified Multiscale Entropy, lower gamma, Week 1",−0.09
same,"d (Cohen's d, prediction of agomelatine outcome)","[1]; REC, Modified Multiscale Entropy, lower gamma, Week 2",0.01
same,"d (Cohen's d, prediction of agomelatine outcome)","[1]; REC, Modified Multiscale Entropy, lower gamma, Week 4",0.21
same,"d (Cohen's d, prediction of agomelatine outcome)","[1]; REC, Modified Multiscale Entropy, upper alpha, Week 1",0.19
same,"d (Cohen's d, prediction of agomelatine outcome)","[1]; REC, Modified Multiscale Entropy, upper alpha, Week 2",0.25
same,"d (Cohen's d, prediction of agomelatine outcome)","[1]; REC, Modified Multiscale Entropy, upper alpha, Week 4",0.39
same,"d (Cohen's d, prediction of agomelatine outcome)","[1]; REC, Multiscale Entropy, upper alpha, Week 1",0.05
same,"d (Cohen's d, prediction of agomelatine outcome)","[1]; REO, Approximate Entropy, lower gamma, Week 1",−0.15
same,"d (Cohen's d, prediction of agomelatine outcome)","[1]; REO, Approximate Entropy, lower gamma, Week 2",−0.05
same,"d (Cohen's d, prediction of agomelatine outcome)","[1]; REO, Approximate Entropy, lower gamma, Week 4",0.09
same,"d (Cohen's d, prediction of agomelatine outcome)","[1]; REO, Detrended Fluctuation Analysis, upper gamma, Week 1",0.37
same,"d (Cohen's d, prediction of agomelatine outcome)","[1]; REO, Detrended Fluctuation Analysis, upper gamma, Week 2",0.33
same,"d (Cohen's d, prediction of agomelatine outcome)","[1]; REO, Detrended Fluctuation Analysis, upper gamma, Week 4",0.32
same,"d (Cohen's d, prediction of agomelatine outcome)","[1]; REO, Higuchi Fractal Dimension, delta, Week 1",−0.15
same,"d (Cohen's d, prediction of agomelatine outcome)","[1]; REO, Higuchi Fractal Dimension, delta, Week 2",−0.05
same,"d (Cohen's d, prediction of agomelatine outcome)","[1]; REO, Higuchi Fractal Dimension, delta, Week 4",0.12
same,"d (Cohen's d, prediction of agomelatine outcome)","[1]; REO, Higuchi Fractal Dimension, lower beta, Week 1",0.03
same,"d (Cohen's d, prediction of agomelatine outcome)","[1]; REO, Higuchi Fractal Dimension, lower beta, Week 2",0.03
same,"d (Cohen's d, prediction of agomelatine outcome)","[1]; REO, Higuchi Fractal Dimension, lower beta, Week 4",0.05
same,"d (Cohen's d, prediction of agomelatine outcome)","[1]; REO, Higuchi Fractal Dimension, upper gamma, Week 1",0.04
same,"d (Cohen's d, prediction of agomelatine outcome)","[1]; REO, Higuchi Fractal Dimension, upper gamma, Week 2",0.06
same,"d (Cohen's d, prediction of agomelatine outcome)","[1]; REO, Higuchi Fractal Dimension, upper gamma, Week 4",0.11
same,"d (Cohen's d, prediction of agomelatine outcome)","[1]; REO, Katz Fractal Dimension, delta, Week 1",0.04
same,"d (Cohen's d, prediction of agomelatine outcome)","[1]; REO, Katz Fractal Dimension, delta, Week 2",0.07
same,"d (Cohen's d, prediction of agomelatine outcome)","[1]; REO, Katz Fractal Dimension, delta, Week 4",0.13
same,"d (Cohen's d, prediction of agomelatine outcome)","[1]; REO, Katz Fractal Dimension, lower beta, Week 1",0.28
same,"d (Cohen's d, prediction of agomelatine outcome)","[1]; REO, Katz Fractal Dimension, lower beta, Week 2",0.18
same,"d (Cohen's d, prediction of agomelatine outcome)","[1]; REO, Katz Fractal Dimension, lower beta, Week 4",0.06
same,"d (Cohen's d, prediction of agomelatine outcome)","[1]; REO, Katz Fractal Dimension, upper beta, Week 1",0.24
same,"d (Cohen's d, prediction of agomelatine outcome)","[1]; REO, Katz Fractal Dimension, upper beta, Week 2",0.24
same,"d (Cohen's d, prediction of agomelatine outcome)","[1]; REO, Katz Fractal Dimension, upper beta, Week 4",0.29
same,"d (Cohen's d, prediction of agomelatine outcome)","[1]; REO, Largest Lyapunov Exponent, upper alpha, Week 1",0.03
same,"d (Cohen's d, prediction of agomelatine outcome)","[1]; REO, Largest Lyapunov Exponent, upper alpha, Week 2",0.08
same,"d (Cohen's d, prediction of agomelatine outcome)","[1]; REO, Largest Lyapunov Exponent, upper alpha, Week 4",0.17
same,"d (Cohen's d, prediction of agomelatine outcome)","[1]; REO, Largest Lyapunov Exponent, upper gamma, Week 1",−0.24
same,"d (Cohen's d, prediction of agomelatine outcome)","[1]; REO, Largest Lyapunov Exponent, upper gamma, Week 2",−0.11
same,"d (Cohen's d, prediction of agomelatine outcome)","[1]; REO, Largest Lyapunov Exponent, upper gamma, Week 4",0.08
same,"d (Cohen's d, prediction of agomelatine outcome)","[1]; REO, Lempel-Ziv Complexity, lower gamma, Week 1",−0.24
same,"d (Cohen's d, prediction of agomelatine outcome)","[1]; REO, Lempel-Ziv Complexity, lower gamma, Week 2",−0.13
same,"d (Cohen's d, prediction of agomelatine outcome)","[1]; REO, Lempel-Ziv Complexity, lower gamma, Week 4",0.02
same,"d (Cohen's d, prediction of agomelatine outcome)","[1]; REO, Lempel-Ziv Complexity, theta, Week 1",0.13
same,"d (Cohen's d, prediction of agomelatine outcome)","[1]; REO, Lempel-Ziv Complexity, theta, Week 2",0.14
same,"d (Cohen's d, prediction of agomelatine outcome)","[1]; REO, Lempel-Ziv Complexity, theta, Week 4",0.17
same,"d (Cohen's d, prediction of agomelatine outcome)","[1]; REO, Lempel-Ziv Complexity, upper beta, Week 1",0.19
same,"d (Cohen's d, prediction of agomelatine outcome)","[1]; REO, Lempel-Ziv Complexity, upper beta, Week 2",0.21
same,"d (Cohen's d, prediction of agomelatine outcome)","[1]; REO, Lempel-Ziv Complexity, upper beta, Week 4",0.30
same,"d (Cohen's d, prediction of agomelatine outcome)","[1]; REO, Modified Multiscale Entropy, upper beta, Week 1",0.08
same,"d (Cohen's d, prediction of agomelatine outcome)","[1]; REO, Modified Multiscale Entropy, upper beta, Week 2",0.15
same,"d (Cohen's d, prediction of agomelatine outcome)","[1]; REO, Modified Multiscale Entropy, upper beta, Week 4",0.31
same,"d (Cohen's d, prediction of agomelatine outcome)","[1]; REO, Multiscale Entropy, lower gamma, Week 1",−0.41
same,"d (Cohen's d, prediction of agomelatine outcome)","[1]; REO, Multiscale Entropy, lower gamma, Week 2",−0.21
same,"d (Cohen's d, prediction of agomelatine outcome)","[1]; REO, Multiscale Entropy, lower gamma, Week 4",0.05
same,"MADRS change, high vs low Pz low-gamma sample entropy","[1]; high = z≥0.27, full study sample, all weeks, FIG. 2C",strong and statistically significant prediction of treatment outcome across all weeks
same,"all-comer effect size d, treatment response to agomelatine versus placebo",[2],0.26
same,performance on a trail making task,[3],superior to an SSRI
same,effect on circadian rhythm,circadian rhythm,phase advance circadian rhythm
